How the values were obtained:
primary DRG neurons = assay: Sodium indication (ANG-2 AM) in primary DRG neurons; type: cell-based, mice
Procedure: DRG neuron culture was processed as described previously. Saijilafu and Zhou, 2012. Briefly, the dishes or coverslips for DRG neuron culture were coated with 50 μL working solution containing 100 μg/mL Poly-D-Lysine and 10 µg/mL Laminin at 37° C. To prepare the neuron culture medium, alpha minimum essential medium (α-MEM) was supplemented with 1× penicillin-streptomycin solution (500 units of penicillin and 500 μg of streptomycin, Gibco Laboratories, Gaithersburg, Md.), 5% fetal bovine serum (Gibco), 1× GlutaMAX-1 supplement (35050-061, Thermo Fisher Scientific), and the antimitotic reagents containing 20 μM 5-fluoro-2-deoxyuridine (F0503, Sigma-Aldrich) and 20 μM uridine (U3003, Sigma-Aldrich). For the serum-free medium, the fetal bovine serum was replaced with the supplement B27. After euthanizing the 6- to 8-week-old mice, the lumbar DRGs were harvested and stored in microfuge tubes with α-MEM medium placed on ice. DRG neurons were digested and dissociated with 1 mg/mL collagenase A solution (10103578001, Roche, Basel, Switzerland) in a 37° C. incubator for 90 min followed by 1× TrypLE Express solution (15140-122, Thermo Fisher) at 37° C. for 20 min. Then, TrypLE Express solution was removed, and DRGs were washed gently 3 times with 1 mL prepared culture medium (containing 5% fetal bovine serum). Tissue was triturated by gently pipetting up and down 20-30 times in 1 mL prepared culture medium. After trituration, the DRG neuron suspension was filtered (40-μm strainer) following non-dissociated tissue settlement to the bottom of the microfuge and transferred to another tube. After centrifugation (800 r.p.m for 4 min at room temperature), the cell pellet was resuspended and cultured in a precoated dish.
For sodium indication. ANG-2 AM (Teflabs, Austin, Tex.) was used according to the manufacturer's protocol. Briefly, 1 mM stock solution of ANG-2 AM was diluted to twice the original volume with a solution of 20% Pluronic F-127 (Thermo Fisher Scientific) in DMSO. Then, the ANG-2 AM/Pluronic F-127 solution was dispersed to final concentration at 5 μM ANG-2 AM and 0.1% Pluronic F-127 with serum-free culture medium. After incubation for 1 h at 37° C., the cell loading medium was removed. The cells were washed with serum-free and dye-free medium and prepared for sodium imaging. The sterile imaging buffer contained 5.4 mM KCL, 160 mM NaCL, 20 mM HEPES, 1.3 mM CaCL2, 0.8 mM MgSO4, 0.78 mM NaH2PO4, and 5 mM glucose (pH 7.4) The sodium imaging was monitored and captured using a confocal microscope (Zeiss LSM 780).
In different sets of experiments, the DRG neurons were treated with 20 μM PGE2 (14010, Cayman Chemical, Ann Arbor, Mich.) for 5 min. […]

PKA/CREB signaling = assay: Western blot and fluorescent staining of PKA and CREB phosphorylation in primary DRG neurons; type: cell-based, mice
Procedure: DRG neuron culture was processed as described previously. Saijilafu and Zhou, 2012. Briefly, the dishes or coverslips for DRG neuron culture were coated with 50 μL working solution containing 100 μg/mL Poly-D-Lysine and 10 µg/mL Laminin at 37° C. To prepare the neuron culture medium, alpha minimum essential medium (α-MEM) was supplemented with 1× penicillin-streptomycin solution (500 units of penicillin and 500 μg of streptomycin, Gibco Laboratories, Gaithersburg, Md.), 5% fetal bovine serum (Gibco), 1× GlutaMAX-1 supplement (35050-061, Thermo Fisher Scientific), and the antimitotic reagents containing 20 μM 5-fluoro-2-deoxyuridine (F0503, Sigma-Aldrich) and 20 μM uridine (U3003, Sigma-Aldrich). For the serum-free medium, the fetal bovine serum was replaced with the supplement B27. After euthanizing the 6- to 8-week-old mice, the lumbar DRGs were harvested and stored in microfuge tubes with α-MEM medium placed on ice. […]
The primary DRG neurons were treated with 20 μM PGE2(14010, Cayman Chemical, Ann Arbor, Mich.) for 30 min; 10 μM PKA inhibitor (H-89, BML-E1196, Enzo Life Sciences, Farmingdale, N.Y.) for 1 h. […] Specific antibodies were applied for incubation, and the proteins were detected by using an enhanced chemiluminescence kit (Amersham Bioscience, RNP2108). […]

[1] = test system: patients with Modic changes associated LBP; details: cited from earlier work
OA joint = details: intra-articular injection; cited from earlier work

## CCCC(=O)Nc1ncnc2c1ncn2[C@@H]1O[C@@H]2COP(=O)(O)O[C@H]2[C@H]1OC(=O)CCC [cAMP, dibutyryl-cAMP]
Primary DRG neurons; DRG neurons of EP4−/− mice, PGE2 combined with cAMP
  sodium influx: rescued sodium influx

## CCCCC[C@H](O)/C=C/[C@H]1[C@H](O)CC(=O)[C@@H]1C/C=C\CCCC(=O)O [PGE2, Prostaglandin E2]
PKA/CREB signaling; PGE2 20 μM 30 min
  activation of PKA and CREB: activates
Primary DRG neurons; DRG neurons of EP4−/− mice
  PGE2-stimulated sodium influx: abolished
Primary DRG neurons; PGE2 20 μM 5 min, DRG neurons from EP4f/f mice
  sodium influx (fluorescent intensity of sodium indicator): significantly stimulated the enhancement of the fluorescent intensity

## denosumab
[1]
  analgesic effects: analgesic effects

## O=S(=O)(NCCNC/C=C/c1ccc(Br)cc1)c1cccc2cnccc12 [PKA inhibitor, H-89]
PKA/CREB signaling; H-89 10 μM 60 min
  PGE2-induced activation of PKA and CREB: abrogated
Primary DRG neurons; PGE2 20 μM combined with H-89 10 μM or siRNA for Nav 1.8
  PGE2-induced sodium influx: ablated

## hyaluronic acid
OA joint
  duration of pain relief: up to 6 months

— patent publication US20230151075A1, “PARATHYROID HORMONE ATTENUATES LOW BACK PAIN AND OSTEOARTHRITIC PAIN” (The Johns Hopkins University, priority 2019, published 2023)
